The text below walks through data of patent publication US4529602A, “Method for treatment or prophylaxis of gastro-intestinal disease” (priority 1981, dated 1985).

Series [1] deals with mineralo-corticoid- or aldosterone-like effect. The note with it: in vivo; cited from earlier work.
The test system of series [2] is urinary electrolytes. Nature of the series: Effect on urinary electrolytes (Experiment 8). Format: in vivo, Male SD-strain rats. The note with it: for Urine volume: 4 h, control 5.7 ± 0.6; for Na/K ratio: 4 h urine, control 6.1 ± 0.3. The procedure:
Male SD-strain rats (6 to 7 weeks old, one group: 5-8 rats) were starved overnight, and a physiological saline solution (3 ml/100 g of body weight) was orally administered to the rats. One hour later, a solution of a test compound in a 0.25% CMC-physiological saline solution was administered orally to the rats in an amount of 3 ml per 100 g of body weight (Dose: 50, 500 or 1,000 mg/kg). Immediately after administration of the test compound, the rats were placed into metabolic cages (one rat per cage) and deprived of water and food for 4 hours. The urine samples which were excreted during a 4 hour period were collected. Sodium and potassium in the urine were estimated by a flame photometer (Hitachi Model-205).

Series [3] concerns urinary electrolytes. Nature of the series: Effect on urine volume and urinary electrolytes (Experiment 7). Format: in vivo, Male SD-strain rats. Conditions: 50 mg/kg oral. The procedure:
Male SD-strain rats (6 to 7 weeks old) were starved overnight, and a physiological saline solution (3 ml/100 g of body weight) was orally administered to the rats. One hour later, a solution or suspension of a test compound in a 0.25% CMC-physiological saline solution was administered orally to the rats in an amount of 3 ml per 100 g of body weight (Dose: 50 and 500 mg/kg). Immediately after administration of the test compound, the rats were placed into metabolic cages (2 rats per cage) and deprived of water and food for 5 hours. The urine samples which were excreted during a 5 hour period were collected. Sodium and potassium in the urine were estimated by a flame photometer (Hitachi Model-205).

The test system of a further series is human gastric ulcer. Conditions: in words, numerous clinical trials; cited from earlier work.
For a further series, the system named is Shay rat ulcers. Nature of the series: Effect on Shay rat ulcers (pylorus-ligated). Format: in vivo, Male SD-strain rats. Conditions: 17 h. The procedure: Male SD-strain rats (6 to 7 weeks old) were starved for 48 hours and then the pylori were ligated. Immediately after ligation, a solution or suspension of a test compound in distilled water was administered orally into the stomachs in an amount of 0.2 ml per 100 g of body weight (Dose: 200 or 300 mg/kg). Seventeen hours after the administration of the test compound, the degree of ulceration in forestomach was examined according to the method of Takagi et al (Chem. Pharm. Bull., 11(10), pp. 1282-1290 (1963)) with a modified scoring system. Depending on the diameter of each lesions, the ulcers were classified into the following 4 grades. Ulcer index was calculated by the sum of the number of ulcers in each degree multiplied by respective ulcer score. Further, based on the ulcer index determined above, the preventive effect of the test compound on Shay rat ulcer was calculated by the following formula: [formula] (Results)

Series [4] deals with experimentally-induced gastric ulceration. Conditions: in words, known; cited from earlier work.
In another series the test system is gastric mucus secretion. Kind of series: Effect on gastric mucus secretion (alcian blue binding). Format: in vivo, Male Sprague-Dawley rats. Conditions: 100 mg/kg oral, 1 h, hydrate. The method, then: Stimulating effect of a test compound on gastric mucus secretion was examined by the method of Corne et al. (J. Physiol., 242, pp. 116-117(1974); J. Pharm. Pharmacol., 33, pp. 348-352(1981)). Male Sprague-Dawley rats (6-7 weeks old; one group: 6 rats) were fasted for 20 hours before the experiments. Water was given ad libitum and coprophagy was prevented by using cages with wide-mesh floors. A test compound dissolved or suspended in distilled water was administered orally to the rats at a dose of 100 mg/kg. One hour after the administration of the test compound, the stomachs were dissected, opened along the greater curvature, rinsed in ice-cold 0.25M sucrose, and the rumen was discarded. Then, the stomachs were incubated in 10 ml of a 0.15M sucrose-0.05M sodium acetate solution (pH 5.8) containing alcian blue (1 mg/ml), at room temperature for 1.5 hours. Finally, the stomachs were placed in 15 ml of a 0.5M magnesium chloride solution for 2 hours with occasional shaking and then removed, and the magnesium chloride solution was shaken briefly with 10 ml of diethyl ether. The optical density of the aqueous layer was read at 605 nm, and the degree of alcian blue binding was expressed as μg alcian blue/g of tissue. The stimulating effect of the test compound on gastric mucus secretion was estimated in terms of "the increase in alcian blue binding" which was calculated by the following formula: [formula] (Results)

For a further series, the system named is pepsin secretion. Nature of the series: Preventive effect on pepsin secretion in pylorus-ligated rats. It counts as in vivo, Male SD-strain rats. Conditions: 100 mg/kg oral, 5 h after administration, hydrate. The method, then:
(§1) Preventive effect on acid and pepsin secretions
(§2) Male SD-strain rats (6 to 7 weeks old) were starved for 48 hours, and then the pylori were ligated. Immediately after ligation, a solution or suspension of a test compound in distilled water was administered orally into the stomachs in an amount of 0.2 ml per 100 g of body weight (Dose: 100 mg/kg). Five hours after said administration of the test compound, the rats were sacrificed and the stomachs were removed. The gastric contents were centrifuged at 2,500 rpm for 10 minutes and the gastric juice was collected as the supernatant. The concentration of pepsin in the gastric juice was determined by Anson's method (c.f., J. Gen. Physiol., 22, pp. 77-89 (1938)) using hemoglobin as the substrate, and the preventive effect of the test compound on the pepsin secretion was estimated in terms of "decrease in pepsin concentration" according to the following formula: [formula]

Another series deals with gastric mucous membrane. Kind of series: Protective effect on gastric mucous membrane (excised stomach in artificial gastric juice). Also noted: species or system Male Sprague-Dawley rats. Conditions: 37° C., 60 min, hydrate; for Amount of tyrosine: control 2.42 ± 0.15. The procedure: Protective effect of a test compound on gastric mucous membrane was examined by the method of Diago et al. (Yakugaku Zasshi, 101, 452-457(1981)). Male Sprague-Dawley rats (6-7 weeks old; one group: 5 rats) were fasted for 20 hours before the experiments. Water was given ad libitum and coprophagy was prevented by using cages with wide-mesh floors. The stomach was excised, opened along the greater curvature, rinsed in physiological saline solution, and the rumen was discarded. The stomach was incubated in 10 ml of an artificial gastric juice (100 mM HCl, 0.3% pepsin, 0.2% NaCl) containing a test compound, at 37° C. for 60 minutes. After the incubation, 2 ml of 7% trichloroacetic acid were added to 0.5 ml of medium, and the mixture was centrifuged. The amount of tyrosine in the supernatant was measured by using Folin-Ciocelteu reagent (J. gen. Physiol., 16, 59-63(1932)), and expressed as mg tyrosine/g tissue. The protective effect of the test compound on gastric mucous membrane was estimated in terms of "the inhibition of digestion of mucous membrane" which was calculated by the following formula: [formula] (Results)

The next series concerns stress-induced ulcers. Nature of the series: Effect on stress-induced ulcers. Format: in vivo, Male ddY-strain mice. Conditions: 100 mg/kg oral, 16 h water immersion. The method, then:
Male ddY-strain mice (4 weeks old) weighing about 20 g were starved for about 7 hours. A solution of a test compound in distilled water was administered orally to the mice in an amount of 0.1 ml per 10 g of body weight (Dose: 100 mg/kg). Immediately after administration of the test compound, the mice were placed in a stress cage and immersed to the level of the cervix in a water bath (24±0.5° C.) for 16 hours. Then, the stomach was removed and slightly inflated by injecting 1.2 ml of a 1% formalin solution to fix the inner layers of the gastric walls. The stomach was then incised along the greater carvature, and the number of ulcerations was examined.

The next series deals with aspirin-induced ulcers. Kind of series: Effect on aspirin-induced ulcers. Conditions: p.o. 2 m mol./kg (847 mg/kg); aspirin 200 mg/kg. Format: in vivo, Male Donryu-strain rats. The method, then: Male Donryu-strain rats (8 to 9 weeks old) were starved overnight, and a solution or suspension of a test compound in distilled water was administered orally into the stomachs in an amount of one ml per 100 g of body weight. Half an hour later, a suspension of aspirin in 0.25% CMC solution was administered orally to the rats in an amount of 0.5 ml per 100 g of body weight (Dose: 200 mg/kg). Four hours after the administration of aspirin, the rats were sacrificed and the stomachs were removed and inflated by injecting 10 ml of 1% formalin solution to fix the inner layers of the gastric walls. The stomach was then incised along the greater curvature and the lengths of the lesions were measured and summated to give ulcer index (in mm) for each animal. The preventive effect of the test compound on aspirin-induced ulcers were calculated by the following formula: [formula] (Results)

The subject of a further series is rats. Kind of series: Acute oral toxicity in rats (Experiment 10). It counts as in vivo. The note with it: male SD-strain rats, 7 days, hydrate, 10080 min. The procedure: After male SD-strain rats (6-7 weeks old) were starved for 20 hours, a solution or suspension of a test compound in distilled water was administered orally to the rats in an amount of one ml per 100 g of body weight. After administration of the test compound, the rats were allowed free access to water and food.

Another series deals with gastric acid secretion. Nature of the series: Preventive effect on gastric acid secretion in pylorus-ligated rats. The note with it: 100 mg/kg oral, 5 h after administration, hydrate. It counts as in vivo, Male SD-strain rats. The method, then:
as §1, §2
On the other hand, the concentration of free acid in the gastric juice was determined by titrating said gastric juice to pH 7.0 with 0.1N NaOH, and the preventive effect of the test compound on the gastric acid secretion was estimated in terms of "the decrease in acidity of gastric juice" according to the following formula: [formula] (Results)

Where [5] appears, read: 1 mg/ml in artificial gastric juice.
Where [6] appears, read: 4 mg/ml in artificial gastric juice.

Counter-ions that a name gives are not always drawn.

Regarding `CC1(C)[C@@H](OC(=O)CCC(=O)O)CC[C@]2(C)[C@H]3C(=O)C=C4[C@@H]5C[C@@](C)(C(=O)O)CC[C@]5(C)CC[C@@]4(C)[C@]3(C)CC[C@@H]12` [Carbenoxolone disodium salt, 3-β-hydroxy-11-oxoolean-12-en-30-oic acid hydrogen succinate, reference compound], the aldosterone-like side effect entry in series [1] is “has an aldosterone-like side effect”. In addition, the Urine volume amounted to 5.2 ± 0.3 mL in the series on urinary electrolytes [2] (50 mg/kg p.o.) and 9.3 mL with urinary electrolytes [3] (5 h, 2 rats per cage, control 12.3). For the same molecule, the Na/K ratio in the series on urinary electrolytes [2] (50 mg/kg p.o., * = significantly different (p < 0.01) from control) is 3.7 ± 0.3. The molecule also yielded a Na/K in the series with urinary electrolytes [3] (5 h urine, control 5.8) of 3.2. Moreover, the “gastric anti-ulcer effect in human gastric ulcer patients” value in the series with human gastric ulcer is listed as “effective gastric anti-ulcer agent”. In addition, the “Preventive effect on Shay rat ulcers” value with Shay rat ulcers (300 mg/kg oral) is listed as 40%. The “protection from experimentally-induced gastric ulceration” value in series [4] is given as “known to protect animals from experimentally-induced gastric ulceration”.
In the series on gastric mucus secretion (control (water) 198.5 ± 6.4), `CC(C)c1cc2c(cc1S(=O)(=O)O)[C@@]1(C)CCC[C@@](C)(C(=O)O)[C@@H]1CC2` [Sulfodehydroabietic acid disodium salt, 1,4a-dimethyl-1-carboxy-6-sulfo-7-isopropyl-1,2,3,4,4a,9,10,10a-octahydro-phenanthrene disodium salt 81/2 hydrate] gave an Alcian blue binding of 247.7 ± 18.4 μg/g tissue. For the same molecule, the “Increase (%) in alcian blue binding” value in the series on gastric mucus secretion was 25%. For the same molecule, the “Decrease (%) in pepsin concentration” value with pepsin secretion was found to be 92%. In the series with gastric mucous membrane (setting [5]), the Amount of tyrosine is recorded as 1.64 ± 0.12 mg/g tissue and the “Inhibition (%) of digestion of mucous membrane” value was determined as 32%. Moreover, in the series with gastric mucous membrane (setting [6]), the Amount of tyrosine was 0.82 ± 0.07 mg/g tissue and the “Inhibition (%) of digestion of mucous membrane” value came to 66%. In the series on urinary electrolytes [2] (500 mg/kg p.o.), the Urine volume stood at 4.8 ± 0.4 mL and the Na/K ratio came out at 7.4 ± 1.0. For the same molecule, in the series with urinary electrolytes [2] (1000 mg/kg p.o.), the Urine volume was 4.3 ± 0.3 mL and the Na/K ratio worked out at 5.9 ± 0.4. The “decrease in the number of stress-induced ulcers” value in the series on stress-induced ulcers was found to be 22%. Also, the “Preventive effect on aspirin-induced ulcers” value in the series on aspirin-induced ulcers is listed as 82%. Further, the median lethal dose (LD50) (as a rule, the dose at which mortality reaches 50%) in the series on rats is on record as over 2000 mg/kg. Also, the “Preventive effect on Shay rat ulcers” value with Shay rat ulcers (200 mg/kg oral, hydrate) amounted to 93%. The “Decrease (%) in acidity of gastric juice” value in the series with gastric acid secretion was 54%.
